# Test results as given in PubChem BioAssay AID2060329 (Molecular Pharmacology Branch, DTP, NCI, 2025).
# System: MCF7 multi-cell spheroids with HUVEC/MSC, viability
# Test: Anticancer human tumor MCF7 cell line growth inhibition [IpAb];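 also: spheroids exposed to agents for seven days before readout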
# Details: for IC50: curve of first compound; for viability, T/C: stronger effect = lower value
# Outline: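 Multi-cell spheroids of 60% tumour cells, 25% HUVEC and 15% MSC in ultra-low-attachment U-bottom wells, treated with agents combined with ipatasertib or abemaciclib. Half-log ranges top out near clinical Cmax, or 10 microM when Cmax is unknown.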
# [1] = second compound 0.1 µM, first compound 0.0316 µM
# [2] = second compound 0.1 µM, first compound 0.1 µM
# [3] = second compound 0.1 µM, first compound 0.316 µM
# [4] = second compound 0.1 µM, first compound 1 µM
# [5] = second compound 0.1 µM, first compound 3.16 µM
# [6] = second compound 0.1 µM, first compound 10 µM
# [7] = second compound 0.316 µM, first compound 0.0316 µM
# [8] = second compound 0.316 µM, first compound 0.1 µM
# [9] = second compound 0.316 µM, first compound 0.316 µM
# [10] = second compound 0.316 µM, first compound 1 µM
# [11] = second compound 0.316 µM, first compound 3.16 µM
# [12] = second compound 0.316 µM, first compound 10 µM
# [13] = second compound 1 µM, first compound 0.0316 µM
# [14] = second compound 1 µM, first compound 0.1 µM
# [15] = second compound 1 µM, first compound 0.316 µM
# [16] = second compound 1 µM, first compound 1 µM
# [17] = second compound 1 µM, first compound 3.16 µM
# [18] = second compound 1 µM, first compound 10 µM
# [19] = second compound 3.16 µM, first compound 0.0316 µM
# [20] = second compound 3.16 µM, first compound 0.1 µM
# [21] = second compound 10 µM, first compound 0.0316 µM
# [22] = second compound 10 µM, first compound 0.1 µM
compound,measurement,setting,value
Cn1ncc(Cl)c1-c1cc(C(=O)NC(CN)Cc2cccc(F)c2)sc1Cl (stereo not given) + CC(C)NCC(C(=O)N1CCN(c2ncnc3c2C(C)CC3O)CC1)c1ccc(Cl)cc1,IC50,second compound 0.1 µM,1.2 µM
same,IC50,second compound 0.316 µM,0.996 µM
same,IC50,second compound 1 µM,1.31 µM
same,IC50,second compound 3.16 µM,0.566 µM
same,IC50,second compound 10 µM,< 0.0316 µM
same,"viability, T/C",[1],85.2%
same,"viability, T/C",[2],79.4%
same,"viability, T/C",[3],74.2%
same,"viability, T/C",[4],59.2%
same,"viability, T/C",[5],3.8%
same,"viability, T/C",[6],0.14%
same,"viability, T/C",[7],84.1%
same,"viability, T/C",[8],73.7%
same,"viability, T/C",[9],72.5%
same,"viability, T/C",[10],51.1%
same,"viability, T/C",[11],10.7%
same,"viability, T/C",[12],0.13%
same,"viability, T/C",[13],74.7%
same,"viability, T/C",[14],70.7%
same,"viability, T/C",[15],67.5%
same,"viability, T/C",[16],63.4%
same,"viability, T/C",[17],7%
same,"viability, T/C",[18],0.12%
same,"viability, T/C",[19],59.9%
same,"viability, T/C",[20],61.4%
same,"viability, T/C","second compound 3.16 µM, first compound 0.316 µM",54%
same,"viability, T/C","second compound 3.16 µM, first compound 1 µM",43.2%
same,"viability, T/C","second compound 3.16 µM, first compound 3.16 µM",6.48%
same,"viability, T/C","second compound 3.16 µM, first compound 10 µM",0.13%
same,"viability, T/C",[21],42.6%
same,"viability, T/C",[22],49.1%
same,"viability, T/C","second compound 10 µM, first compound 0.316 µM",47.3%
same,"viability, T/C","second compound 10 µM, first compound 1 µM",43.3%
same,"viability, T/C","second compound 10 µM, first compound 3.16 µM",2.17%
same,"viability, T/C","second compound 10 µM, first compound 10 µM",0.59%
Cn1ncnc1[C@H]1c2n[nH]c(=O)c3cc(F)cc(c23)N[C@@H]1c1ccc(F)cc1 + CC(C)NCC(C(=O)N1CCN(c2ncnc3c2C(C)CC3O)CC1)c1ccc(Cl)cc1,IC50,second compound 0.1 µM,> 0.1 µM
same,IC50,second compound 0.316 µM,> 0.1 µM
same,IC50,second compound 1 µM,> 0.1 µM
same,IC50,second compound 3.16 µM,0.0203 µM
same,IC50,second compound 10 µM,< 0.000316 µM
same,"viability, T/C","second compound 0.1 µM, first compound 0.000316 µM",98.7%
same,"viability, T/C","second compound 0.1 µM, first compound 0.001 µM",92.8%
same,"viability, T/C","second compound 0.1 µM, first compound 0.00316 µM",89.7%
same,"viability, T/C","second compound 0.1 µM, first compound 0.01 µM",87.5%
same,"viability, T/C",[1],79.8%
same,"viability, T/C",[2],85.5%
same,"viability, T/C","second compound 0.316 µM, first compound 0.000316 µM",74.4%
same,"viability, T/C","second compound 0.316 µM, first compound 0.001 µM",79.9%
same,"viability, T/C","second compound 0.316 µM, first compound 0.00316 µM",81.2%
same,"viability, T/C","second compound 0.316 µM, first compound 0.01 µM",72.5%
same,"viability, T/C",[7],71.8%
same,"viability, T/C",[8],82.6%
same,"viability, T/C","second compound 1 µM, first compound 0.000316 µM",67.9%
same,"viability, T/C","second compound 1 µM, first compound 0.001 µM",75.6%
same,"viability, T/C","second compound 1 µM, first compound 0.00316 µM",67.2%
same,"viability, T/C","second compound 1 µM, first compound 0.01 µM",62.3%
same,"viability, T/C",[13],63%
same,"viability, T/C",[14],56.5%
same,"viability, T/C","second compound 3.16 µM, first compound 0.000316 µM",59%
same,"viability, T/C","second compound 3.16 µM, first compound 0.001 µM",56.3%
same,"viability, T/C","second compound 3.16 µM, first compound 0.00316 µM",58.3%
same,"viability, T/C","second compound 3.16 µM, first compound 0.01 µM",50.1%
same,"viability, T/C",[19],47.4%
same,"viability, T/C",[20],46.4%
same,"viability, T/C","second compound 10 µM, first compound 0.000316 µM",42.3%
same,"viability, T/C","second compound 10 µM, first compound 0.001 µM",46.5%
same,"viability, T/C","second compound 10 µM, first compound 0.00316 µM",39.9%
same,"viability, T/C","second compound 10 µM, first compound 0.01 µM",36.1%
same,"viability, T/C",[21],41.5%
same,"viability, T/C",[22],36.4%
C=CCn1c(=O)c2cnc(Nc3ccc(N4CCN(C)CC4)cc3)nc2n1-c1cccc(C(C)(C)O)n1 + CCN1CCN(Cc2ccc(Nc3ncc(F)c(-c4cc(F)c5nc(C)n(C(C)C)c5c4)n3)nc2)CC1,IC50,second compound 0.01 µM,0.485 µM
same,IC50,second compound 0.0316 µM,0.561 µM
same,IC50,second compound 0.1 µM,0.741 µM
same,IC50,second compound 0.316 µM,0.965 µM
same,IC50,second compound 1 µM,0.85 µM
same,"viability, T/C","second compound 0.01 µM, first compound 0.0316 µM",94.5%
same,"viability, T/C","second compound 0.01 µM, first compound 0.1 µM",90.6%
same,"viability, T/C","second compound 0.01 µM, first compound 0.316 µM",60.1%
same,"viability, T/C","second compound 0.01 µM, first compound 1 µM",32.8%
same,"viability, T/C","second compound 0.01 µM, first compound 3.16 µM",25.6%
same,"viability, T/C","second compound 0.01 µM, first compound 10 µM",25.6%
same,"viability, T/C","second compound 0.0316 µM, first compound 0.0316 µM",91.4%
same,"viability, T/C","second compound 0.0316 µM, first compound 0.1 µM",87.7%
same,"viability, T/C","second compound 0.0316 µM, first compound 0.316 µM",63.4%
same,"viability, T/C","second compound 0.0316 µM, first compound 1 µM",36.3%
same,"viability, T/C","second compound 0.0316 µM, first compound 3.16 µM",25.7%
same,"viability, T/C","second compound 0.0316 µM, first compound 10 µM",23.7%
same,"viability, T/C",[1],113%
same,"viability, T/C",[2],83.5%
same,"viability, T/C",[3],71%
same,"viability, T/C",[4],42.6%
same,"viability, T/C",[5],29%
same,"viability, T/C",[6],36.7%
same,"viability, T/C",[7],109%
same,"viability, T/C",[8],109%
same,"viability, T/C",[9],88%
same,"viability, T/C",[10],49%
same,"viability, T/C",[11],37.9%
same,"viability, T/C",[12],36.8%
same,"viability, T/C",[13],88%
same,"viability, T/C",[14],94%
same,"viability, T/C",[15],87.1%
same,"viability, T/C",[16],43.9%
same,"viability, T/C",[17],41.6%
same,"viability, T/C",[18],42.1%
Cn1cnc2c(F)c(Nc3ccc(Br)cc3Cl)c(C(=O)NOCCO)cc21 + CCN1CCN(Cc2ccc(Nc3ncc(F)c(-c4cc(F)c5nc(C)n(C(C)C)c5c4)n3)nc2)CC1,IC50,second compound 0.01 µM,> 3 µM
same,IC50,second compound 0.0316 µM,> 3 µM
same,IC50,second compound 0.1 µM,> 3 µM
same,IC50,second compound 0.316 µM,> 3 µM
same,IC50,second compound 1 µM,> 3 µM
same,"viability, T/C","second compound 0.01 µM, first compound 0.00949 µM",104%
same,"viability, T/C","second compound 0.01 µM, first compound 0.03 µM",121%
same,"viability, T/C","second compound 0.01 µM, first compound 0.0949 µM",103%
same,"viability, T/C","second compound 0.01 µM, first compound 0.3 µM",113%
same,"viability, T/C","second compound 0.01 µM, first compound 0.949 µM",125%
same,"viability, T/C","second compound 0.01 µM, first compound 3 µM",100%
same,"viability, T/C","second compound 0.0316 µM, first compound 0.00949 µM",94.4%
same,"viability, T/C","second compound 0.0316 µM, first compound 0.03 µM",113%
same,"viability, T/C","second compound 0.0316 µM, first compound 0.0949 µM",109%
same,"viability, T/C","second compound 0.0316 µM, first compound 0.3 µM",116%
same,"viability, T/C","second compound 0.0316 µM, first compound 0.949 µM",119%
same,"viability, T/C","second compound 0.0316 µM, first compound 3 µM",99%
same,"viability, T/C","second compound 0.1 µM, first compound 0.00949 µM",130%
same,"viability, T/C","second compound 0.1 µM, first compound 0.03 µM",120%
same,"viability, T/C","second compound 0.1 µM, first compound 0.0949 µM",117%
same,"viability, T/C","second compound 0.1 µM, first compound 0.3 µM",127%
same,"viability, T/C","second compound 0.1 µM, first compound 0.949 µM",127%
same,"viability, T/C","second compound 0.1 µM, first compound 3 µM",113%
same,"viability, T/C","second compound 0.316 µM, first compound 0.00949 µM",119%
same,"viability, T/C","second compound 0.316 µM, first compound 0.03 µM",132%
same,"viability, T/C","second compound 0.316 µM, first compound 0.0949 µM",132%
same,"viability, T/C","second compound 0.316 µM, first compound 0.3 µM",126%
same,"viability, T/C","second compound 0.316 µM, first compound 0.949 µM",120%
same,"viability, T/C","second compound 0.316 µM, first compound 3 µM",108%
same,"viability, T/C","second compound 1 µM, first compound 0.00949 µM",107%
same,"viability, T/C","second compound 1 µM, first compound 0.03 µM",110%
same,"viability, T/C","second compound 1 µM, first compound 0.0949 µM",107%
same,"viability, T/C","second compound 1 µM, first compound 0.3 µM",95.5%
same,"viability, T/C","second compound 1 µM, first compound 0.949 µM",88.5%
same,"viability, T/C","second compound 1 µM, first compound 3 µM",88.5%
